According to patent publication US11807693B2 (priority 2014, dated 2023):
Read-outs that look alike come from different tables or passages of the source. Starred links: 1 amine or outer side, 2 acyl side, 3 side chain; linkers in the order of their positions; H or OH if unused. Non-standard residues stand in square brackets, D forms with d. Residues, ends and D or L forms follow the SMILES beside them. *: point of attachment. dBip = N[C@H](Cc1ccc(-c2ccccc2)cc1)C(=O)O; Oic = O=C(O)[C@@H]1C[C@@H]2CCCC[C@@H]2N1; Phe(4-Cl) = N[C@@H](Cc1ccc(Cl)cc1)C(=O)O; Phe(4-I) = N[C@@H](Cc1ccc(I)cc1)C(=O)O; γGlu = O=C(O)[C@H](CCC(=O)[*:2])N[*:1]; 2Nal = N[C@@H](Cc1ccc2ccccc2c1)C(=O)O; dIgl = N[C@@H](C(=O)O)C1Cc2ccccc2C1; NMeR = CN[C@@H](CCCNC(=N)N)C(=O)O; Palmitoyl = CCCCCCCCCCCCCCCC(=O)*; Tridecanoyl = CCCCCCCCCCCCC(=O)*; X1 = O=C(CN(C1CCNCC1)[*:1])[*:2]; hArg = N=C(N)NCCCC[C@H](N)C(=O)O; Cha = N[C@@H](CC1CCCCC1)C(=O)O; NMeL = CN[C@@H](CC(C)C)C(=O)O; β3hV = CC(C)[C@H](N)CC(=O)O; Pip = O=C(O)[C@@H]1CCCCN1; Nle = CCCC[C@H](N)C(=O)O; AEEA = NCCOCCOCC(=O)O; Aib = CC(C)(N)C(=O)O; βAla = NCCC(=O)O

Experiments:
rat APJ receptor = molecular target: T1, rat APJ receptor (Rattus norvegicus, UniProt Q9JHG3); assay: [35S] GTPγS assay, rat APJ receptor; format: biochemical
T1 construct: expressed in transfected cells
T1 sequence (Q9JHG3 1-377): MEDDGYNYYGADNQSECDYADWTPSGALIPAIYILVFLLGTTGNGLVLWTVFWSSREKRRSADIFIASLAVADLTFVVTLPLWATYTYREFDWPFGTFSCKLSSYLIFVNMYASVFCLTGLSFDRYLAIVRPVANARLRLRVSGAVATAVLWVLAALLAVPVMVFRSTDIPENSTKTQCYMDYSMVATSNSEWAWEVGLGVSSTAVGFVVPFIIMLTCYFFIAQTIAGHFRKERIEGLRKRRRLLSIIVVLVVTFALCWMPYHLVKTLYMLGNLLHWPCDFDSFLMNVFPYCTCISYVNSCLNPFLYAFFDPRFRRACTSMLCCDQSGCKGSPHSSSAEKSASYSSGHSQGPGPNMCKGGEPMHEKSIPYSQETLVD
Protocol: The membranes were incubated with modified peptides in the assay buffer. […] Bound [^35S] GTPγS was separated from free radiolabel by filtration. The filter bound radioactivity was determined by liquid scintillation counting.

[1] = In vitro stability in rat liver homogenate; format: in vitro ADME; conditions: tissue homogenate
Protocol: (§1) Apelin peptides were spiked into rat plasma, liver homogenate, and kidney homogenate, which were obtained from commercial sources, to a final concentration of 5 μM. The samples were then incubated at 37° C. over a period of 4 hr. […] In a typical experiment, an aliquot of 100 μL of sample was taken from the incubation vial, followed by addition of 300 μL of MeOH containing internal standard. The quenched sample was centrifuged at 5500 g for 15 min after 15 min vortex in room temperature. The supernatant was then analyzed by high resolution LC-MS. […] In vitro plasma, […], and kidney stability results are shown below in Table 14.

[2] = In vitro stability in rat plasma; format: in vitro ADME
Protocol: as §1

[3] = rat APJ receptor, read-out: EC50 Rat APJ Receptor
[4] = Table 16, read-out: EC50 Rat APJ Receptor

Row | SMILES | EC50 (rat APJ receptor; [3]) [µM] | EC50 (rat APJ receptor; [4]) [µM] | remaining at 4 h, 5 μM [1] [%] | remaining at 4 h, 5 μM [2] [%]
1 | CCCCCCCCCCCCC(=O)N[C@@H](CCC(=O)NCCOCCOCC(=O)NCCOCCOCC(=O)N[C@@H](CCCCNC(=N)N)C(=O)N[C@H](CCCNC(=N)N)C(=O)N[C@@H](CCC(N)=O)C(=O)N[C@@H](CCCC)C(=O)N1CCC[C@H]1C(=O)N[C@H](CCCNC(=N)N)C(=O)N(C)[C@@H](CC(C)C)C(=O)N[C@@H](C)C(=O)N[C@@H](C)C(=O)N[C@@H](CCCCN)C(=O)NCC(=O)N1[C@H](C(=O)N[C@@H](Cc2ccc(I)cc2)C(=O)N2CCC[C@H]2C(=O)N[C@H](Cc2ccc(-c3ccccc3)cc2)C(=O)O)C[C@@H]2CCCC[C@@H]21)C(=O)O [compound 334] ({Tridecanoyl-γGlu-AEEA-AEEA}-[hArg][dR]Q[Nle]P[dR][NMeL]AAKG[Oic][Phe(4-I)]P[dBip]-OH) | 0.0447 | – | – | –
2 | CCCCCCCCCCCCC(=O)N[C@@H](CCC(=O)NCCOCCOCC(=O)NCCOCCOCC(=O)N[C@H](CCC(N)=O)C(=O)N[C@@H](CCCCNC(=N)N)C(=O)N1CCC[C@H]1C(=O)N[C@H](CCCNC(=N)N)C(=O)N[C@@H](CC1CCCCC1)C(=O)N[C@@H](CO)C(=O)N[C@@H](Cc1c[nH]cn1)C(=O)N[C@@H](CCCCN)C(=O)NCC(=O)N1[C@H](C(=O)N[C@@H](CCCC)C(=O)N2CCC[C@H]2C(=O)N[C@@H](C(=O)O)C2Cc3ccccc3C2)C[C@@H]2CCCC[C@@H]21)C(=O)O [compound 431] ({Tridecanoyl-γGlu-AEEA-AEEA}-[dQ][hArg]P[dR][Cha]SHKG[Oic][Nle]P[dIgl]-OH) | – | 0.025 | – | –
3 | CCCCCCCCCCCCC(=O)N[C@@H](CCC(=O)NCCOCCOCC(=O)NCCOCCOCC(=O)N[C@@H](CCC(N)=O)C(=O)N[C@@H](CCCCNC(=N)N)C(=O)N1CCC[C@H]1C(=O)N(C)[C@@H](CCCNC(=N)N)C(=O)N[C@@H](CC1CCCCC1)C(=O)N[C@@H](CO)C(=O)N[C@@H](Cc1c[nH]cn1)C(=O)N[C@@H](CCCCN)C(=O)NCC(=O)N1[C@H](C(=O)N[C@@H](CCCC)C(=O)N2CCC[C@H]2C(=O)N[C@@H](Cc2ccc3ccccc3c2)C(=O)O)C[C@@H]2CCCC[C@@H]21)C(=O)O [compound 405] ({Tridecanoyl-γGlu-AEEA-AEEA}-Q[hArg]P[NMeR][Cha]SHKG[Oic][Nle]P[2Nal]-OH) | – | 0.0138 | – | –
4 | CCCCCCCCCCCCC(=O)N[C@@H](CCC(=O)NCCOCCOCC(=O)NCCOCCOCC(=O)N[C@@H](CCC(N)=O)C(=O)N[C@@H](CCCCNC(=N)N)C(=O)N1CCC[C@H]1C(=O)N(C)[C@@H](CCCNC(=N)N)C(=O)N[C@H](CC(=O)N[C@@H](CO)C(=O)N[C@@H](Cc1c[nH]cn1)C(=O)N[C@@H](CCCCN)C(=O)NCC(=O)N1CCC[C@H]1C(=O)N[C@@H](CCCC)C(=O)N1CCC[C@H]1C(=O)N[C@@H](Cc1ccc(Cl)cc1)C(=O)O)C(C)C)C(=O)O [compound 383] ({Tridecanoyl-γGlu-AEEA-AEEA}-Q[hArg]P[NMeR][β3hV]SHKGP[Nle]P[Phe(4-Cl)]-OH) | – | – | < 1 | 31
5 | CCCCCCCCCCCCC(=O)N[C@@H](CCC(=O)NCCOCCOCC(=O)NCCOCCOCC(=O)N[C@@H](CCC(N)=O)C(=O)N[C@@H](CCCNC(=N)N)C(=O)N1CCC[C@H]1C(=O)N(C)[C@@H](CCCNC(=N)N)C(=O)N[C@@H](CC(C)C)C(=O)N[C@@H](CO)C(=O)N[C@@H](Cc1c[nH]cn1)C(=O)N[C@@H](CCCCN)C(=O)NCC(=O)N1CCC[C@H]1C(=O)N[C@@H](CCCC)C(=O)NCCC(=O)N[C@@H](Cc1ccc(Cl)cc1)C(=O)O)C(=O)O [compound 425] ({Tridecanoyl-γGlu-AEEA-AEEA}-QRP[NMeR]LSHKGP[Nle][βAla][Phe(4-Cl)]-OH) | – | – | < 1 | > 90
6 | CCCCCCCCCCCCC(=O)N[C@@H](CCC(=O)NCCOCCOCC(=O)NCCOCCOCC(=O)N[C@@H](CCC(N)=O)C(=O)N[C@@H](CCCCNC(=N)N)C(=O)N1CCC[C@H]1C(=O)N(C)[C@@H](CCCNC(=N)N)C(=O)N[C@@H](CC(C)C)C(=O)N[C@@H](CO)C(=O)N[C@@H](Cc1c[nH]cn1)C(=O)N[C@@H](CCCCN)C(=O)NCC(=O)N1CCC[C@H]1C(=O)N[C@@H](CCCC)C(=O)N1CCC[C@H]1C(=O)N[C@@H](Cc1ccc(Cl)cc1)C(=O)O)C(=O)O [compound 353] | – | – | 0 | 20
7 | CCCCCCCCCCCCC(=O)N[C@@H](CCC(=O)NCCOCCOCC(=O)NCCOCCOCC(=O)N[C@@H](CCC(N)=O)C(=O)N[C@@H](CCCNC(=N)N)C(=O)N1CCC[C@H]1C(=O)N(C)[C@@H](CCCNC(=N)N)C(=O)N[C@@H](CC(C)C)C(=O)N[C@@H](CO)C(=O)N[C@@H](Cc1c[nH]cn1)C(=O)N[C@@H](CCCCN)C(=O)NCC(=O)N1CCC[C@H]1C(=O)N[C@@H](CCCC)C(=O)N[C@@H](Cc1ccc(Cl)cc1)C(=O)O)C(=O)O [compound 402] ({Tridecanoyl-γGlu-AEEA-AEEA}-QRP[NMeR]LSHKGP[Nle][Phe(4-Cl)]-OH) | – | – | < 1 | 87
8 | CSCC[C@H](NC(=O)[C@@H](N)CS)C(=O)N1CCC[C@H]1C(=O)N[C@@H](CC(C)C)C(=O)N[C@@H](Cc1cnc[nH]1)C(=O)N[C@@H](CO)C(=O)N[C@@H](CCCNC(=N)N)C(=O)N[C@H](C(=O)N1CCC[C@H]1C(=O)N[C@@H](Cc1ccccc1)C(=O)N1CCC[C@H]1C(=O)O)C(C)C [compound 13] | – | – | < 1 | 7
9 | CCCCCCCCCCCCC(=O)N[C@@H](CCC(=O)NCCOCCOCC(=O)NCCOCCOCC(=O)N[C@@H](CCC(N)=O)C(=O)N[C@@H](CCCNC(=N)N)C(=O)N1CCC[C@H]1C(=O)N[C@@H](CCCCNC(=N)N)C(=O)N[C@@H](CC(C)C)C(=O)N[C@@H](CO)C(=O)N[C@@H](Cc1c[nH]cn1)C(=O)N[C@@H](CCCCN)C(=O)NCC(=O)N1CCC[C@H]1C(=O)N[C@@H](CCCC)C(=O)N1CCC[C@H]1C(=O)N[C@@H](Cc1ccc(Cl)cc1)C(=O)O)C(=O)O [compound 355] | – | – | 0 | 64

Now from value to compound:

Row | EC50 (rat APJ receptor; [3]) [µM] | EC50 (rat APJ receptor; [4]) [µM] | remaining at 4 h, 5 μM [1] [%] | remaining at 4 h, 5 μM [2] [%] | SMILES
10 | 0.000994 | – | – | – | CCCCCCCCCCCCCCCC(=O)N[C@@H](CCC(=O)NCCOCCOCC(=O)NCCOCCOCC(=O)N[C@H](CCC(N)=O)C(=O)N(CC(=O)N1CCC[C@H]1C(=O)N(C)[C@@H](CCCNC(=N)N)C(=O)N[C@@H](CC1CCCCC1)C(=O)N[C@@H](CO)C(=O)N[C@@H](Cc1c[nH]cn1)C(=O)N[C@@H](CCCCN)C(=O)NCC(=O)N1CCCC[C@H]1C(=O)N[C@@H](CCCC)C(=O)NC(C)(C)C(=O)N[C@@H](Cc1ccc(Cl)cc1)C(=O)O)C1CCNCC1)C(=O)O [compound 646] ({Palmitoyl-γGlu-AEEA-AEEA}-[dQ][X1]P[NMeR][Cha]SHKG[Pip][Nle][Aib][Phe(4-Cl)]-OH)
11 | – | – | < 1 | 74 | CCCCCCCCCCCCC(=O)N[C@@H](CCC(=O)NCCOCCOCC(=O)NCCOCCOCC(=O)N[C@@H](CCC(N)=O)C(=O)N[C@H](CCCNC(=N)N)C(=O)N1CCC[C@H]1C(=O)N[C@@H](CCCCNC(=N)N)C(=O)N[C@@](C)(CC(C)C)C(=O)N[C@@H](CO)C(=O)N[C@@H](Cc1c[nH]cn1)C(=O)N[C@@H](CCCCN)C(=O)NCC(=O)N1CCC[C@H]1C(=O)N[C@@H](CCCC)C(=O)N1CCC[C@H]1C(=O)N[C@@H](Cc1ccc(Cl)cc1)C(=O)O)C(=O)O [compound 485]
12 | – | – | < 1 | 62 | CCCCCCCCCCCCC(=O)N[C@@H](CCC(=O)NCCOCCOCC(=O)NCCOCCOCC(=O)N[C@@H](CCC(N)=O)C(=O)N[C@@H](CCCNC(=N)N)C(=O)N1CCC[C@H]1C(=O)N(C)[C@@H](CCCNC(=N)N)C(=O)N[C@@](C)(CC(C)C)C(=O)N[C@@H](CO)C(=O)N[C@@H](Cc1c[nH]cn1)C(=O)N[C@@H](CCCCN)C(=O)NCC(=O)N1CCC[C@H]1C(=O)N[C@@H](CCCC)C(=O)N1CCC[C@H]1C(=O)N[C@@H](Cc1ccc(Cl)cc1)C(=O)O)C(=O)O [compound 457]
13 | – | – | < 1 | > 90 | CCCCCCCCCCCCC(=O)N[C@@H](CCC(=O)NCCOCCOCC(=O)NCCOCCOCC(=O)N[C@H](CCC(N)=O)C(=O)N[C@@H](CCCNC(=N)N)C(=O)N1CCC[C@H]1C(=O)N(C)[C@@H](CCCNC(=N)N)C(=O)N[C@@H](CC1CCCCC1)C(=O)N[C@@H](CO)C(=O)N[C@@H](Cc1c[nH]cn1)C(=O)N[C@@H](CCCCN)C(=O)NCC(=O)N1CCCC[C@H]1C(=O)N[C@@H](CCCC)C(=O)NC(C)(C)C(=O)N[C@@H](Cc1ccc(Cl)cc1)C(=O)O)C(=O)O [compound 499] ({Tridecanoyl-γGlu-AEEA-AEEA}-[dQ]RP[NMeR][Cha]SHKG[Pip][Nle][Aib][Phe(4-Cl)]-OH)
14 | – | – | < 1 | 21 | CCCCCCCCCCCCC(=O)N[C@@H](CCC(=O)NCCOCCOCC(=O)NCCOCCOCC(=O)N[C@@H](CCC(N)=O)C(=O)N[C@@H](CCCNC(=N)N)C(=O)N1CCC[C@H]1C(=O)N(C)[C@@H](CCCNC(=N)N)C(=O)N[C@@H](CC(C)C)C(=O)NCCC(=O)N[C@@H](Cc1c[nH]cn1)C(=O)N[C@@H](CCCCN)C(=O)NCC(=O)N1CCC[C@H]1C(=O)N[C@@H](CCCC)C(=O)N1CCC[C@H]1C(=O)N[C@@H](Cc1ccc(Cl)cc1)C(=O)O)C(=O)O [compound 464] ({Tridecanoyl-γGlu-AEEA-AEEA}-QRP[NMeR]L[βAla]HKGP[Nle]P[Phe(4-Cl)]-OH)
